{
  "source": "PubChem BioAssay AID1845204",
  "about": "(Molecular Pharmacology Branch, DTP, NCI, 2023)",
  "tested_on": "HSSY-II tumor spheroid viability",
  "experiment": "Anticancer human tumor HSSY-II cell line growth inhibition;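 note: spheroids exposed to compounds for seven days before reading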;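 for viability, T/C: percent of DMSO vehicle control viability so 100% = untreated level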",
  "conditions": "spheroids with HUVEC and MSC; for IC50: curve of first compound; for viability, T/C: stronger effect = lower value",
  "text": "Multicellular complex tumor spheroid response to DNA repair inhibitors in combination with DNA-damaging drugs\nThis study explores the anticancer activities of DNA-damaging drugs and inhibitors of DNA damage repair, both as single agents and in combinations. Complex tumor spheroids comprised of malignant cells, endothelial cells and mesenchymal stem cells served as an in vitro model for human solid tumors. This model system incorporates physiologically relevant features and patient-derived or established malignant cell lines with clinically relevant genetic alterations from many tumor types. Twenty-six patient-derived or established malignant cell lines were evaluated representing sarcoma, melanoma, small cell lung cancer (SCLC), non-small cell lung cancer (NSCLC), as well as bladder, ovarian and pancreatic cancers. The concentration ranges selected for each drug and investigational agent were based upon clinically achievable concentrations if the clinical Cmax of the agent was known.\nCompounds. The drugs and compounds olaparib (NSC753686), talazoparib (NSC767125), berzosertib (NSC777718), elimusertib (NSC800525), nedisertib (NSC802822), VX-984 (NSC792969), AZD-1390 (NSC803789), temozolomide (NSC362856), topotecan (NSC609699), trabectedin (NSC813783), staurosporine (NSC755774), and gemcitabine (NSC613327) were obtained from the National Cancer Institute (NCI) Developmental Therapeutics Program Chemical Repository. The FDA-approved anticancer drug set is available from the Developmental Therapeutics Program at https://dtp.cancer.gov/organization/dscb/obtaining/available_plates.htm. […] The stock solutions were prepared in dimethyl sulfoxide (DMSO, Sigma-Aldrich, St. Louis, MO, cat. D2650) at 400-fold the tested concentration and stored at -70 degrees C. Prior to their use, the stock solutions were diluted in fresh medium and the final DMSO concentration in the assay was 0.25% (v/v). All drugs and investigational agents were tested over a range starting from a high concentration at or near the clinical Cmax and decreasing in half-log increments. If the clinical Cmax for an agent had not been determined, the highest concentration tested was 10 microM.\nCell Lines. The patient-derived cancer cell (PDC) lines: 156681-154-R-J1-PDC, 283228-195-R-J1-PDC, 287954-098-R-J1-PDC, 292921-168-R-J2-PDC, 349418-098-R-PDC, 425362-245-T-J1-PDC, 556581-035-R-J1-PDC, and BL0293-F563-PDC were received from the NCI Patient-Derived Models Repository (PDMR, https://pdmr.cancer.gov). The established cell lines HS-SY-2 (RRID:CVCL_8719), MPNST, and SYO-1 (RRID:CVCL_7146) were obtained from the Sloan Kettering Institute. The alveolar soft parts sarcoma cell line ASPS-1 (RRID:CVCL_S738) was established at the NCI and grown from internal seed stocks. The following established cell lines were purchased from the American Type Culture Collection (ATCC, Manassas, VA): G-401 (ATCC, cat. CRL-1441, RRID:CVCL_0270), SW982 (ATCC, cat. HTB-93, RRID:CVCL_1734), VA-ES-BJ (ATCC, cat. CRL-2138, RRID:CVCL_1785), NCI-H719 (ATCC, cat. CRL-5837, RRID:CVCL_1582), NCI-H196 (ATCC, cat. CRL-5823, RRID:CVCL_1509), NCI-H841 (ATCC, cat. CRL-5845, RRID:CVCL_1595), NCI-H1618 (ATCC, cat. CRL-5879, RRID:CVCL_1480), NCI-H1876 (ATCC, cat. CRL-5902, RRID:CVCL_1503), DMS 114 (ATCC, cat. CRL-2066; RRID:CVCL_1174), NCI-H211 (ATCC, cat. CRL-5824; RRID:CVCL_1529), and SW 1271 (ATCC, cat. CRL-2177, RRID:CVCL_1716). The small cell lung cancer cell line COR-L88 was purchased from Sigma-Aldrich (cat. 92031917-1VL, RRID:CVCL_1141). The non-small cell lung cancer cell lines NCI-H226 (RRID:CVCL_1544) and NCI-H322M (RRID:CVCL_1557) were established at the NCI and grown from internal seed stocks. Pooled donor human umbilical vein endothelial cells (HUVEC, Lonza, cat. CC-2519) and human mesenchymal stem cells (hMSC, Lonza, cat. PT-2501) were purchased from Lonza (Walkersville, MD).\nCell Culture. All cells were maintained in an incubator at 37 degrees C and 5% CO2 with 95% humidity. […]",
  "data": [
    {"smiles": "CC1COCCN1c1cc(-c2ccnn2C)c2ccnc(-c3ccn[nH]3)c2n1", "note": "(stereo not given) + CC[C@@]1(O)C(=O)OCc2c1cc1n(c2=O)Cc2cc3c(CN(C)C)c(O)ccc3nc2-1", "values": [
      {"measurement": "IC50", "setting": "second compound 0.003 µM", "value": "< 31.6", "unit": "nM"},
      {"measurement": "IC50", "setting": "second compound 0.00949 µM", "value": "< 31.6", "unit": "nM"},
      {"measurement": "IC50", "setting": "second compound 0.03 µM", "value": "< 31.6", "unit": "nM"},
      {"measurement": "IC50", "setting": "second compound 0.0949 µM", "value": "< 31.6", "unit": "nM"},
      {"measurement": "IC50", "setting": "second compound 0.3 µM", "value": "< 31.6", "unit": "nM"},
      {"measurement": "viability, T/C", "setting": "second compound 0.003 µM, first compound 0.0316 µM", "value": 6.17, "unit": "%"},
      {"measurement": "viability, T/C", "setting": "second compound 0.003 µM, first compound 0.1 µM", "value": 4.36, "unit": "%"},
      {"measurement": "viability, T/C", "setting": "second compound 0.003 µM, first compound 0.316 µM", "value": 2.62, "unit": "%"},
      {"measurement": "viability, T/C", "setting": "second compound 0.003 µM, first compound 1 µM", "value": 1.92, "unit": "%"},
      {"measurement": "viability, T/C", "setting": "second compound 0.003 µM, first compound 3.16 µM", "value": 1.88, "unit": "%"},
      {"measurement": "viability, T/C", "setting": "second compound 0.003 µM, first compound 10 µM", "value": 2.35, "unit": "%"},
      {"measurement": "viability, T/C", "setting": "second compound 0.00949 µM, first compound 0.0316 µM", "value": 4.45, "unit": "%"},
      {"measurement": "viability, T/C", "setting": "second compound 0.00949 µM, first compound 0.1 µM", "value": 3.49, "unit": "%"},
      {"measurement": "viability, T/C", "setting": "second compound 0.00949 µM, first compound 0.316 µM", "value": 2.45, "unit": "%"},
      {"measurement": "viability, T/C", "setting": "second compound 0.00949 µM, first compound 1 µM", "value": 1.99, "unit": "%"},
      {"measurement": "viability, T/C", "setting": "second compound 0.00949 µM, first compound 3.16 µM", "value": 1.87, "unit": "%"},
      {"measurement": "viability, T/C", "setting": "second compound 0.00949 µM, first compound 10 µM", "value": 2.14, "unit": "%"},
      {"measurement": "viability, T/C", "setting": "second compound 0.03 µM, first compound 0.0316 µM", "value": 3.87, "unit": "%"},
      {"measurement": "viability, T/C", "setting": "second compound 0.03 µM, first compound 0.1 µM", "value": 3.3, "unit": "%"},
      {"measurement": "viability, T/C", "setting": "second compound 0.03 µM, first compound 0.316 µM", "value": 2.51, "unit": "%"},
      {"measurement": "viability, T/C", "setting": "second compound 0.03 µM, first compound 1 µM", "value": 1.83, "unit": "%"},
      {"measurement": "viability, T/C", "setting": "second compound 0.03 µM, first compound 3.16 µM", "value": 1.68, "unit": "%"},
      {"measurement": "viability, T/C", "setting": "second compound 0.03 µM, first compound 10 µM", "value": 2.01, "unit": "%"},
      {"measurement": "viability, T/C", "setting": "second compound 0.0949 µM, first compound 0.0316 µM", "value": 3.97, "unit": "%"},
      {"measurement": "viability, T/C", "setting": "second compound 0.0949 µM, first compound 0.1 µM", "value": 3.08, "unit": "%"},
      {"measurement": "viability, T/C", "setting": "second compound 0.0949 µM, first compound 0.316 µM", "value": 2.54, "unit": "%"},
      {"measurement": "viability, T/C", "setting": "second compound 0.0949 µM, first compound 1 µM", "value": 1.86, "unit": "%"},
      {"measurement": "viability, T/C", "setting": "second compound 0.0949 µM, first compound 3.16 µM", "value": 1.59, "unit": "%"},
      {"measurement": "viability, T/C", "setting": "second compound 0.0949 µM, first compound 10 µM", "value": 1.83, "unit": "%"},
      {"measurement": "viability, T/C", "setting": "second compound 0.3 µM, first compound 0.0316 µM", "value": 3.93, "unit": "%"},
      {"measurement": "viability, T/C", "setting": "second compound 0.3 µM, first compound 0.1 µM", "value": 3.43, "unit": "%"},
      {"measurement": "viability, T/C", "setting": "second compound 0.3 µM, first compound 0.316 µM", "value": 2.61, "unit": "%"},
      {"measurement": "viability, T/C", "setting": "second compound 0.3 µM, first compound 1 µM", "value": 1.6, "unit": "%"},
      {"measurement": "viability, T/C", "setting": "second compound 0.3 µM, first compound 3.16 µM", "value": 1.43, "unit": "%"},
      {"measurement": "viability, T/C", "setting": "second compound 0.3 µM, first compound 10 µM", "value": 1.82, "unit": "%"}
    ]}
  ]
}
